Numbered stars: 1 amine (or outer) side, 2 acyl side, 3 side chain; on linkers, the order of the positions; unused ones are H or OH. Bridge positions count the residues as written; N and C are the ends. Square brackets hold non-standard residues; d marks the D form. Peptide text beside a SMILES is read from it. X3 = O=C(/C=N/OCCCCCCOc1cc(C[*:2])cc(C[*:3])c1)[*:1]; X1 = O=C(C=NOCCCCCCOc1cc(C[*:2])cc(C[*:3])c1)[*:1]; X5 = O=C(CCCCCCOc1cc(C[*:2])cc(C[*:3])c1)[*:1]; X7 = O=C(/C=N\OCc1cc(C[*:2])cc(C[*:3])c1)[*:1]; tBuAla = CC(C)(C)C[C@H](N)C(=O)O; Nle = CCCC[C@H](N)C(=O)O
target: T1, rh-integrin α4β7/LPAM-1 (Homo sapiens, UniProt P13612+P26010); assay: α4β7-MadCAM Competition ELISA (Example 4); assay type: binding; conditions: IC50, Table 3 Representative compounds; inhibition of MAdCAM binding to coated α4β7
T1 sequence (P13612 34-977 limits assumed): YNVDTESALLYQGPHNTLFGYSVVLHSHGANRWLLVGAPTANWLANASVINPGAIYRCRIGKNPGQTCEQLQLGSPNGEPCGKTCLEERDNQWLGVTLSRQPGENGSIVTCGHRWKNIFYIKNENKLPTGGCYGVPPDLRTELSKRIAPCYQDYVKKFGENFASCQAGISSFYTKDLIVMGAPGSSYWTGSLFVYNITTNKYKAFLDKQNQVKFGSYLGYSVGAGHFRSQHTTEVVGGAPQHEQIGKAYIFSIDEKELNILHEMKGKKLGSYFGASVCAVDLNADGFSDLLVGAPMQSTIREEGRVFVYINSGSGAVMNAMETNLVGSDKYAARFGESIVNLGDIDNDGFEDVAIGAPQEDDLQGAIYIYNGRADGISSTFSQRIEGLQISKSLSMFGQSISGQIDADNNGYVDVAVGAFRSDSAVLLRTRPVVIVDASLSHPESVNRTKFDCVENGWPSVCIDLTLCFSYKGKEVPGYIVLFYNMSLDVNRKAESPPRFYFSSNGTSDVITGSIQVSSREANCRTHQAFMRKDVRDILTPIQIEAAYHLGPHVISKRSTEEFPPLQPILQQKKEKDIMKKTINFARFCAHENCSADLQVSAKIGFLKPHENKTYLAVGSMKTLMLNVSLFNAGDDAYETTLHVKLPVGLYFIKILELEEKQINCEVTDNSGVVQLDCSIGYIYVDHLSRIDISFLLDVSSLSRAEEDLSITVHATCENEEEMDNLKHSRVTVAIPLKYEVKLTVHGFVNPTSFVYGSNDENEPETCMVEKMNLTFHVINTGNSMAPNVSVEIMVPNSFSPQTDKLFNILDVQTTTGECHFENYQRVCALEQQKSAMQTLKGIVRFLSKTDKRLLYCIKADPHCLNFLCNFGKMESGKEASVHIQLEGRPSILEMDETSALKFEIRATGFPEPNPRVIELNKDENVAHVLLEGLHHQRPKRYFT
T1 sequence (P26010 20-723 limits assumed): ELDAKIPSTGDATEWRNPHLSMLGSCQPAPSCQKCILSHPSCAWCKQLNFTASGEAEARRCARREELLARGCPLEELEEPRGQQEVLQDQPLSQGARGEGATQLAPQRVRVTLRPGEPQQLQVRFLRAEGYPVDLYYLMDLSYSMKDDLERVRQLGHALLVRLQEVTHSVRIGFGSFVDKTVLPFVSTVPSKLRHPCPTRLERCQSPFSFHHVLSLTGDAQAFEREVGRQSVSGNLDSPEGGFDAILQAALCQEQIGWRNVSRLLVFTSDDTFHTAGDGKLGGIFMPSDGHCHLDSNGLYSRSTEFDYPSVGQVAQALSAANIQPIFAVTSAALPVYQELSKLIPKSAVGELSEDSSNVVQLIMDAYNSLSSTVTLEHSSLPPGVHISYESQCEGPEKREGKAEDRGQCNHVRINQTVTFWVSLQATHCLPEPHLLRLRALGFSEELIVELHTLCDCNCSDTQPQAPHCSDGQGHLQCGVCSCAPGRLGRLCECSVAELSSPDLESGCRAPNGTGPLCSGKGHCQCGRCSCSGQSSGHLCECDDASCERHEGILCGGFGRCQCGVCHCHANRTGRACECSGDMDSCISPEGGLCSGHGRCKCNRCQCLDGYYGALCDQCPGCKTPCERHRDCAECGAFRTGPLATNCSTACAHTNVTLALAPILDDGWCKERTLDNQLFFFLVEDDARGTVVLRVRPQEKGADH
Description: After washing with wash buffer, 200 μL assay buffer was added to each well and incubated for one hour at 28° C. After another wash with wash buffer, 100 μL of a MAdCAM and peptide mixture in assay buffer was added to each well and incubated for one hour at 28° C., followed by washing with wash buffer.

SMILES	IC50
CC[C@H](C)[C@@H]1NC(=O)[C@H]([C@@H](C)O)NC(=O)[C@H](CC(=O)O)NC(=O)[C@H](CO)NC(=O)[C@H](CCCNC(=N)N)NC(=O)[C@@H]2CSCc3cc(cc(c3)CSC[C@@H](C(N)=O)NC1=O)CO/N=C\C(=O)N[C@@H](C)C(=O)N2 [compound 94, TSL1- SACRSDTLC] (ACRSDTIC-NH2; linker N-2-8 via X7)	111000 nM

same assay, conditions: Table 3 Representative compounds; inhibition of MAdCAM binding to coated α4β7; read-out: IC50

SMILES	IC50
CC(C)C[C@@H]1NC(=O)[C@@H]2CCCN2C(=O)[C@@H]2CSCc3cc(cc(c3)OCCCCCCO/N=C/C(=O)N[C@@H](CCCCN)C(=O)N2)CSC[C@@H](C(N)=O)NC(=O)[C@H](CCC(=O)O)NC(=O)[C@H](Cc2ccc(O)cc2)NC(=O)[C@@H]2CCCN2C(=O)[C@H](CC(C)C)NC(=O)[C@H](CC(=O)O)NC1=O [compound 19] (KCPLDLPYEC-NH2; linker N-2-10 via X3)	363 nM
CC(C)[C@@H]1NC(=O)[C@H](CC(=O)O)NC(=O)[C@H](CC(C)(C)C)NC(=O)[C@@H]2CCCN2C(=O)[C@@H]2CSCc3cc(cc(c3)OCCCCCCO/N=C/C(=O)N[C@@H](CCCNC(=N)N)C(=O)N2)CSC[C@@H](C(N)=O)NC(=O)[C@H](CCC(=O)O)NC(=O)[C@H](CCC(N)=O)NC(=O)[C@@H]2CCCN2C1=O [compound 30, TSL6- SRCP{tBuAla} DVPQEC] (RCP[tBuAla]DVPQEC-NH2; linker N-2-10 via X3)	690 nM
CSCC[C@@H]1NC(=O)[C@H](CO)NC(=O)[C@H](CC(=O)O)NC(=O)[C@@H]2CCCN2C(=O)[C@@H]2CSCc3cc(cc(c3)OCCCCCCO/N=C/C(=O)N[C@@H](CC(=O)O)C(=O)N2)CSC[C@@H](C(N)=O)NC(=O)[C@H](CO)NC(=O)[C@H](Cc2cnc[nH]2)NC(=O)[C@H](C)NC1=O [compound 65, TSL6- SDCPDSMAHSC] (DCPDSMAHSC-NH2; linker N-2-10 via X3)	13800 nM
CC[C@H](C)[C@@H]1NC(=O)[C@H](CC(=O)O)NC(=O)[C@H](CCSC)NC(=O)[C@@H]2CCCN2C(=O)[C@@H]2CSCc3cc(cc(c3)OCCCCCCO/N=C/C(=O)N[C@@H](CCC(N)=O)C(=O)N2)CSC[C@@H](C(N)=O)NC(=O)[C@H]([C@@H](C)O)NC(=O)[C@@H]2CCCN2C1=O [compound 40, TSL6- SQCPMDIPTC] (QCPMDIPTC-NH2; linker N-2-9 via X3)	1270 nM
CC(C)C[C@@H]1NC(=O)[C@@H]2CCCN2C(=O)[C@@H]2CSCc3cc(cc(c3)OCCCCCCO/N=C/C(=O)N[C@@H](CCCCN)C(=O)N2)CSC[C@@H](C(N)=O)NC(=O)[C@H](C)NC(=O)[C@H](Cc2ccc(O)cc2)NC(=O)[C@@H]2CCCN2C(=O)[C@H]([C@@H](C)O)NC(=O)[C@H](CC(=O)O)NC1=O [compound 24, TSL6- SKCPLDTPYAC] (KCPLDTPYAC-NH2; linker N-2-10 via X3)	517 nM
CCCC[C@@H]1NC(=O)[C@H](CO)NC(=O)[C@@H]2CSSC[C@@H](C(=O)N[C@@H](Cc3c[nH]c4ccccc34)C(=O)N[C@@H](CCC(N)=O)C(N)=O)NC(=O)[C@H](CC(C)C)NC(=O)[C@@H](CC(=O)O)NC(=O)[C@H](CCCC)NC(=O)[C@H](CO)NC(=O)[C@H](CCCNC(=N)N)NC(=O)[C@H](CSCC(=O)N[C@@H](CCCNC(=N)N)C(=O)N2)NC(=O)[C@H](CC(C)C)NC(=O)[C@H](CC(=O)O)NC1=O [compound 103, Disulfide- RCS{Nle}DICRS NleDICWQ] ({CH2CO}-RCS[Nle]DLCRS[Nle][dD]LCWQ-NH2; disulfide 2-13; thioether N-7)	263000 nM
CC[C@H](C)[C@@H]1NC(=O)[C@H](CC(=O)O)NC(=O)[C@H](C)NC(=O)[C@@H]2CCCN2C(=O)[C@@H]2CSCc3cc(cc(c3)OCCCCCCO/N=C/C(=O)N[C@@H](CCC(N)=O)C(=O)N2)CSC[C@@H](C(N)=O)NC(=O)[C@H]([C@@H](C)O)NC(=O)[C@@H]2CCCN2C1=O [compound 78, TSL6- SQCPADIPTC] (QCPADIPTC-NH2; linker N-2-9 via X3)	43700 nM
CC(C)C[C@@H]1NC(=O)[C@@H]2CCCN2C(=O)[C@@H]2CSCc3cc(cc(c3)OCCCCCCO/N=C/C(=O)N[C@@H](CCCCN)C(=O)N2)CSC[C@@H](C(N)=O)NC(=O)[C@H](CCC(=O)O)NC(=O)[C@H](Cc2ccc(O)cc2)NC(=O)[C@@H]2CCCN2C(=O)[C@H]([C@@H](C)O)NC(=O)[C@H](C)NC1=O [compound 108, TSL6- SKCPLATPYEC] (KCPLATPYEC-NH2; linker N-2-10 via X3)	> 500000 nM
CC[C@H](C)[C@@H]1NC(=O)[C@H](CC(=O)O)NC(=O)[C@H](CCSC)NC(=O)[C@@H]2CCCN2C(=O)[C@@H](NC(=O)[C@H](CCC(N)=O)NC(=O)[C@H](CO)NC(C)=O)CSSC[C@@H](C(N)=O)NC(=O)[C@H]([C@@H](C)O)NC(=O)[C@@H]2CCCN2C1=O [compound 47] (Ac-SQCPMDIPTC-NH2; disulfide 3-10)	1700 nM
CCCC[C@@H]1NC(=O)[C@@H]2CCCN2C(=O)[C@@H]2CSCc3cc(cc(c3)OCCCCCCO/N=C/C(=O)N[C@@H](CCCNC(=N)N)C(=O)N2)CSC[C@@H](C(N)=O)NC(=O)[C@H](CCC(=O)O)NC(=O)CNC(=O)[C@H](C)NC(=O)[C@H](C(C)C)NC(=O)[C@H](CC(=O)O)NC1=O [compound 15] (RCP[Nle]DVAGEC-NH2; linker N-2-10 via X3)	261 nM

same assay, conditions: competition ELISA, 4 μg/mL α4β7 coated, MAdCAM and peptide mixture, 28° C.; read-out: IC50

SMILES	IC50
CC(C)C[C@@H]1NC(=O)[C@@H]2CCCN2C(=O)[C@@H]2CSCc3cc(cc(c3)OCCCCCCON=CC(=O)N[C@@H](CCCCN)C(=O)N2)CSC[C@@H](C(=O)O)NC(=O)[C@H](CO)NC(=O)[C@@H]2CCCN2C(=O)[C@H](C)NC(=O)[C@H](CC(=O)O)NC1=O [SEQ ID NO: 57] (KCPLDAPSC-OH; linker N-2-9 via X1)	1740 nM
CCCC[C@@H]1NC(=O)[C@H](CO)NC(=O)[C@H](CCCNC(=N)N)NC(=O)[C@@H]2CSCC(=O)N[C@@H](CCCNC(=N)N)C(=O)N[C@@H](CSSC[C@@H](C(=O)N[C@@H](Cc3c[nH]c4ccccc34)C(=O)N[C@@H](CCC(N)=O)C(N)=O)NC(=O)[C@H]([C@@H](C)CC)NC(=O)[C@H](CC(=O)O)NC1=O)C(=O)N[C@@H](CO)C(=O)N[C@@H](CC(=O)O)C(=O)N[C@@H]([C@@H](C)O)C(=O)N[C@@H](CC(C)C)C(=O)N2 [SEQ ID NO: 96] ({CH2CO}-RCSDTLCRS[Nle]DICWQ-NH2; disulfide 2-13; thioether N-7)	15900 nM
CC(C)C[C@@H]1NC(=O)[C@@H]2CCCN2C(=O)[C@@H]2CSCc3cc(cc(c3)OCCCCCCON=CC(=O)N[C@@H](CCCCN)C(=O)N2)CSC[C@@H](C(=O)O)NC(=O)[C@H](CCC(=O)O)NC(=O)[C@H]([C@@H](C)O)NC(=O)[C@@H]2CCCN2C(=O)[C@H]([C@@H](C)O)NC(=O)[C@H](CC(=O)O)NC1=O [SEQ ID NO: 121] (KCPLDTPTEC-OH; linker N-2-10 via X1)	748 nM
CSCC[C@@H]1NC(=O)[C@H]([C@@H](C)O)NC(=O)[C@H](C)NC(=O)CNC(=O)[C@@H]2CSCc3cc(cc(c3)OCCCCCCON=CC(=O)N[C@@H](Cc3ccccc3)C(=O)N2)CSC[C@@H](C(=O)O)NC(=O)[C@H](CCCCN)NC(=O)[C@H](CCCCN)NC1=O [SEQ ID NO: 79] (FCGATMKKC-OH; linker N-2-9 via X1)	162000 nM
CCCC[C@@H]1NC(=O)[C@@H]2CCCN2C(=O)[C@@H]2CSCc3cc(cc(c3)OCCCCCCC(=O)NCC(=O)N[C@@H](C)C(=O)N2)CSC[C@@H](C(=O)O)NC(=O)[C@H](CCC(=O)O)NC(=O)[C@H](CCC(N)=O)NC(=O)[C@H](Cc2c[nH]c3ccccc23)NC(=O)[C@H](C(C)C)NC(=O)[C@H](CC(=O)O)NC1=O [SEQ ID NO: 122] (GACP[Nle]DVWQEC-OH; linker N-3-11 via X5; C-terminus assumed)	740 nM

Reference: patent US20230145835A1, “Modulators of Alpha-4-beta-7 Integrin and MAdCAM” (48HD Biopharma Inc., priority 2021, published 2023)
